Assay results: patent US20260097047A1, “Small molecule inhibitors of the ribosome biogenesis factor NVL2” (Board of Regents, The University of Texas System, priority 2023, published 2026)

Assays:
Assay type in all cases: cell-based, human
60S biogenesis = assay: SNAP-tag labeling of existing and newly synthesized eL36 (60S) and eS17 (40S); settings: 24 hours
From the text: The observed reduction in free 60S using polysome profiling could be the consequence of decreased 60S synthesis or accelerated 60S degradation, or a combination of the two. To distinguish between existing and newly synthesized 60S, we engineered HCT116 cells to express a C-terminal SNAP-tag on eL36, a ribosomal protein incorporated into the 60S subunit prior to NVL binding (39) or a control C-terminal SNAP-tag on a component of the small ribosomal subunit, eS17, to monitor 40S biogenesis (40). We first labeled existing eL36 or eS17 in cells with an Oregon green benzylguanine (green). Then, we treated cells for 24 hours with either vehicle or MM017 before adding a 647-SiR benzylguanine to label the pool of proteins synthesized over the 24-hour period and evaluated each polysome profile fraction for either existing or new proteins. […] MM017 treatment had no impact on the levels or fractionation pattern of existing eL36-SNAP.
Next, we examined the impact of MM017 on the subcellular localization of eL36-SNAP (60S) or eS17-SNAP (40S). As expected for mature ribosomes, existing eL36-SNAP was nearly completely cytoplasmic, and treatment with MM017 had no impact on its localization. In vehicle treated cells, newly synthesized eL36-SNAP was both nucleolar and cytoplasmic, reflecting its presence in pre-60S and mature ribosomes. […]

[1] = test system: MM017-resistant iHCT116 clones; assay: Forward genetics: MM017-resistant iHCT116 clones (NVL mutations); settings: summary statement
From the text: This system uses an engineered colorectal cancer HCT116 cell line (iHCT116) in which the addition of indole acetic acid (IAA) initiates a ubiquitin-mediated degradation of the DNA mismatch repair protein MLH1, thereby providing a mechanism to temporarily increase mutation rates. We applied this strategy to MM017, a dibenzothiazepinone identified in a high-throughput small molecule screen for HCT116 cytotoxicity. […] We exposed barcoded iHCT116 cells, that had previously been cultured either with (Mutagenesis-on) or without IAA (Mutagenesis-off), to increasingly lethal doses of MM017.
From whole exome sequencing, we identified variants that were acquired during IAA-induced mutagenesis with the hypothesis that genes related to resistance will be mutated in multiple clones.

cleaved caspase-3 = assay: Cleaved caspase-3 (apoptosis), HCT116 control and p53 KO cells
From the text: The upregulation of p53 and its effector p21 can arrest cell growth or induce cell death through apoptosis. […] Next, we addressed whether cell death was mediated by an apoptotic pathway by assaying for cleaved caspase-3, a bona fide marker of apoptosis.

[2] = test system: 60S, 80S and 40S ribosomal subunits; assay: Polysome profiling
From the text: NVL2 in yeast is essential for 60S ribosomal maturation, and therefore, we hypothesized that MM017 might decrease 60S ribosome synthesis. To test this hypothesis, we subjected either parental or NVL mutant cells treated with MM017 for different time points to polysome profiling. Polysome profiling uses a sucrose gradient to fractionate the complete ribosome (80S) from its components, the large (60S) and small (40S) subunit. […] Since the 80S is a complex of the 40S and 60S ribosomes, fewer 60S ribosomes are expected to result in increased free 40S subunits. All of these changes are the result of binding NVL2 since they were not present in the NVL2^R403W mutant cells. Taken together, these observations indicate that MM017 inhibits NVL2 leading to reduced 60S ribosome.
We next assessed the impact of disrupting NVL on the distribution of ribosomal species using polysome profiling. Addition of Ph-IAA to induce NVL degradation in NVL^AID/AID cells led to a time-dependent reduction in free 60S and 80S levels (based on absorbance at 260 nm) and a concomitant increase in 40S levels. […] The polysome profiles following NVL disruption in HCT116 cells appear similar to those reported in yeast with RIX7 mutations (37) or in human cells overexpressing catalytic mutants of NVL (38).

HCT116 cells = assay: Genome-wide CRISPR/Cas9 knockout screen in HCT116 cells; settings: 1 μM pulsed intermittently over 21 days
From the text: To better understand how inhibition of NVL by MM017 leads to cell death, we performed a genome wide pooled CRISPR/Cas9 knockout screen in HCT116 cells using a library of guide RNAs targeting 19,114 genes. Cells were pulsed intermittently with vehicle or MM017 over 21 days, at which point MM017 treated cells had undergone 9.79 fewer population doublings. Massively parallel sequencing of PCR products amplified from genomic DNA was used to determine relative levels of sgRNA sequences to infer the relative impact of each gene on compound sensitivity. […]
HCT116 cells stably expressing Cas9 were generated by infecting cells with lentiCas9-Blast (Addgene #52962) and selection with 10 μg/mL blasticidin. […] Viable cells were counted at each passage and collected after 21 days. Genomic DNA was extracted using Blood & Cell Culture DNA Maxi kit (QIAGEN #13362), and concentrations were determined using Quant-iT PicoGreen dsDNA assay kits (Invitrogen #P7589). sgRNAs were PCR-amplified using 28 cycles from approximately 650 μg genomic DNA (10 μg DNA/100 μL reaction) using Ex Taq DNA Polymerase (TaKaRa #RR001B), 8 staggered P5 primers, and 1 unique P7 index primer per sample as described in the “Protocol PCR of sgRNAs from gDNA for Illumina sequencing” published by the Broad Institute (51). […] The mapping reads were counted for each sgRNA using SAMtools (v1.9) with the options “-F 2308-q 1”. […]

COCCN1C(=O)c2ccccc2Sc2cc(NC(=O)c3ccoc3)ccc21 [MM017]
effect on 40S subunits (eS17-SNAP) (60S biogenesis): no impact on 40S subunits | newly synthesized eL36-SNAP in polysome profile fractions (60S biogenesis): reduced in the 60S, 80S, and polysome fractions | resistance caused by mutations in NVL2 [1]: 30 fold | cleaved caspase-3 (cleaved caspase-3): substantially reduced in p53 KO cells | polysome profile, NVL^P307T cells ([2]; NVL^P307T): no changes in polysome profiles | polysome profile, parental cells ([2]; parental HCT116): time-dependent decrease in the 60S and 80S ribosomal subunits | fewer population doublings than vehicle (HCT116 cells): 9.79
